Results taken from PMC6272134, “Bioavailability Enhancement of Paclitaxel via a Novel Oral Drug Delivery System: Paclitaxel-Loaded Glycyrrhizic Acid Micelles” (Molecules, 2015).
Values after ≈ are worked out from the molar mass of the structure shown. Like-named read-outs stand apart in the source and are kept apart here.

Assays:
CYP1A1 = tested on: CYP1A1; parameters: method as in PMID 12584850; conditions: rat liver microsomes; cited from earlier work
cell membranes = tested on: cell membranes; parameters: method as in PMID 24870200; conditions: cited from earlier work
P-gp = tested on: P-gp; parameters: method as in PMID 16904803; conditions: in vitro study; cited from earlier work
[1] = parameters: method as in PMID 19929808; conditions: cited from earlier work
CYP2E1 = tested on: CYP2E1; parameters: method as in PMID 12584850; conditions: rat liver microsomes; cited from earlier work
CYP3A = tested on: CYP3A; parameters: method as in PMID 12584850; conditions: rat liver microsomes; cited from earlier work
[2] = parameters: method as in PMID 11879753; conditions: cited from earlier work
[3] = Phase-solubility test of PTX in GA / ethanol-water solutions; type: physicochemical
Procedure: The phase-solubility test was performed with a previously reported method. An excess quantity of PTX was taken into clean and dry vials containing 1 mL of various concentrations of GA solutions ([…]). […] Ultimately, the samples were filtered through 0.45 μm filters and the concentrations of PTX were detected by high performance liquid chromatography (HPLC; LC-20A, Shimadzu, Japan) (see Section 3.3.6.). All tests were repeated at least three times.

[4] = parameters: method as in PMID 7939764; conditions: cited from earlier work

Structure (SMILES) | inhibitor of CYP1A1 (CYP1A1) | increase of the permeability of cell membranes (cell membranes) | inhibition of the function of P-gp (P-gp) | critical micelle concentration [1] | inhibitor of CYP2E1 (CYP2E1) | inhibitor of CYP3A (CYP3A) | aqueous solubility [2] [µg/mL] | solubility at 48 h ([3]; 10 mM GA solution in water, aqueous with cosolvent or surfactant or cyclodextrin, thermodynamic from solid, water, in the presence of 10 mM GA, 25 °C, read-out: solubility of PTX) [µg/mL] | solubility at 48 h ([3]; 7.5% ethanol in water with 10 mM GA, 25 °C, aqueous with cosolvent or surfactant or cyclodextrin, thermodynamic from solid, optimal ethanol percentage (7.5%) with GA (10 mM), read-out: PTX solubility) [µg/mL] | solubility increase ([3]; 7.5% ethanol with GA vs solubility of PTX in water) | solubility at 48 h ([3]; ethanol-water mixtures without GA, 0%, 5%, 7.5%, 10% and 25% ethanol in water, without GA, read-out: solubility of PTX in different percentages of ethanol) [µg/mL] | solubility at 48 h ([3]; water, absence of GA, 25 °C, read-out: solubility of PTX in water) [µg/mL] | oral bioavailability [4] [%]
CC1(C)[C@@H](O[C@H]2O[C@H](C(=O)O)[C@@H](O)[C@H](O)[C@H]2O[C@@H]2O[C@H](C(=O)O)[C@@H](O)[C@H](O)[C@H]2O)CC[C@]2(C)[C@H]3C(=O)C=C4[C@@H]5C[C@@](C)(C(=O)O)CC[C@]5(C)CC[C@@]4(C)[C@]3(C)CC[C@@H]12 [GA, Glycyrrhizic acid] | inhibitor | about 60% | inhibited the function of P-gp | 10^−3 M | inhibitor | inhibitor | – | – | – | – | – | – | –
CC(=O)O[C@H]1C(=O)[C@@]2(C)[C@H]([C@H](OC(=O)c3ccccc3)[C@]3(O)C[C@H](OC(=O)[C@H](O)[C@@H](NC(=O)c4ccccc4)c4ccccc4)C(C)=C1C3(C)C)[C@]1(OC(C)=O)CO[C@@H]1C[C@@H]2O [PTX, Paclitaxel] | – | – | – | – | – | – | < 1 | 124 | 823 ± 14.4 (≈ 964 µM) | more than 1,000 fold | ≤ 30 | ~0.67 (≈ 0.785 µM) | < 2
